For assay [1], the target named is EGFR (human) (UniProt P00533). Conditions: hn5.
For assay [2], the target named is EGFR (UniProt P00533).

Bounds are passed on as bounds.

Sequence of EGFR (human) (P00533 whole entry, looked up): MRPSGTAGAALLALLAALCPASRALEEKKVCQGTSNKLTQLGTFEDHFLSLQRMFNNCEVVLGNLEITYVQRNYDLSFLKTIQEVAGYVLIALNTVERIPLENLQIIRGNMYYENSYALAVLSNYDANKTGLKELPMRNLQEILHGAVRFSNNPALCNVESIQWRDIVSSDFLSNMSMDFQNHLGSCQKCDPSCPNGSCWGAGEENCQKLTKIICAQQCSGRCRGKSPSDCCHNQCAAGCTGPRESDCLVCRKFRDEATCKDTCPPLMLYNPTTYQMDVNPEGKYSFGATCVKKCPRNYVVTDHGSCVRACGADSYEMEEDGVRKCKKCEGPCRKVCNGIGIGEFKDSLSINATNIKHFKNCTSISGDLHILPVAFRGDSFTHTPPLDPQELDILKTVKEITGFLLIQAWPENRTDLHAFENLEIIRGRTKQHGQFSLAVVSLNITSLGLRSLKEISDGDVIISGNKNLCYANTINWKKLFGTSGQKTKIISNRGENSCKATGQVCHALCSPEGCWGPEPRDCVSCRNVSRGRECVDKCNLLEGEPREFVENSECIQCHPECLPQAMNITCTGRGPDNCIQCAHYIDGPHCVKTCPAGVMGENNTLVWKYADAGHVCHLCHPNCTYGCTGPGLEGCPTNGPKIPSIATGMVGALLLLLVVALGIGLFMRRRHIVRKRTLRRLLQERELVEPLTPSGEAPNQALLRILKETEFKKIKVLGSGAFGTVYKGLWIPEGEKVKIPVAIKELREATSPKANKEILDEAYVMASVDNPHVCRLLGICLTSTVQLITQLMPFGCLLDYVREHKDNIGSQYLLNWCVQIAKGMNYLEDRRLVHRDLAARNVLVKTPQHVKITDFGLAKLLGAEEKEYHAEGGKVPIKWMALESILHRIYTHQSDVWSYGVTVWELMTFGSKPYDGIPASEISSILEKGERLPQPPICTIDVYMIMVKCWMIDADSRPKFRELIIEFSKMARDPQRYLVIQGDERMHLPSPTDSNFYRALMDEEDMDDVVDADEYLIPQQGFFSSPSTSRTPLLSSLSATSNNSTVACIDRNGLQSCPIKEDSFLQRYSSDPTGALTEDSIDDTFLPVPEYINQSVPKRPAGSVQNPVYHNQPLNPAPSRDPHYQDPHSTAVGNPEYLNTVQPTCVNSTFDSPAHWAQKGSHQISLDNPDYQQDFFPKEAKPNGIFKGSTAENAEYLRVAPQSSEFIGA
Sequence of EGFR (P00533 whole entry, looked up): as above

As to `CS(=O)(=O)CCNCCCCOc1ccc2ncnc(Nc3ccc(OCc4cccc(F)c4)c(Cl)c3)c2c1`, in assay [1], the IC50 was 5000 to 25000 nM. The same measure, in the same setting: to `CS(=O)(=O)CCNCCCOc1ccc2ncnc(Nc3ccc(OCc4ccccc4)cc3)c2c1` belongs 5000 to 25000 nM. `CS(=O)(=O)CCNCc1ccc2ncnc(Nc3ccc4c(cnn4Cc4ccccc4)c3)c2c1` came in with an IC50 in assay [2] of less than 100 nM. In assay [1], `CS(=O)(=O)CCNCCCCOc1ccc2ncnc(Nc3ccc(S(=O)(=O)c4ccccc4)cc3)c2c1` came in with a half-inhibitory concentration (IC50) of less than 5000 nM. In assay [2], `CC(C)(C)OC(=O)[C@H]1CCCN1Cc1ccc2ncnc(Nc3ccc4c(cnn4Cc4ccccc4)c3)c2c1` yielded an IC50 of 100 to 1000 nM. As for `CS(=O)(=O)CCNCCCCOc1ccc2ncnc(Nc3ccc(OCc4ccccc4)cc3)c2c1`, in assay [1], the half-maximal inhibitory concentration (IC50) is less than 5000 nM. `CN(CC(N)=O)Cc1ccc2ncnc(Nc3ccc4c(cnn4Cc4ccccc4)c3)c2c1` displayed an IC50 in assay [2] of less than 100 nM. `NC(=O)[C@@H]1CCCN1Cc1ccc2ncnc(Nc3ccc4c(cnn4Cc4ccccc4)c3)c2c1`: in assay [2], the IC50 is less than 100 nM. Turning to `O=C(O)CNCc1ccc2ncnc(Nc3ccc4c(cnn4Cc4ccccc4)c3)c2c1`, the concentration for half-maximal inhibition (IC50) in assay [2] was less than 100 nM.

On to `NC(=O)CNCc1ccc2ncnc(Nc3ccc4c(cnn4Cc4ccccc4)c3)c2c1`, for which the IC50 in assay [2] was less than 100 nM. `CN(CCCOc1ccc2ncnc(Nc3ccc(OCc4ccccc4)cc3)c2c1)CCS(C)(=O)=O` displayed an IC50 in assay [1] of less than 5000 nM.

One may read the IC50 as the point on the concentration scale where inhibition reaches its midpoint. Read a high IC50 as weaker potency.

The record behind these values is the Kinase Knowledgebase extract (Sharma et al. 2016).
